{"source": "patent US20220096650A1", "about": "(Glaxosmithkline Intellectual Property Development Limited, priority 2019, published 2022)", "key": {"[1]": {"system": "NCI-H929 Multiple Myeloma cells", "assay": "IL-10 in supernatants of NCI-H929 cells cultured alone", "assay_type": "cell-based, human", "conditions": "48 hours, 0.1, 1, 10 μg/mL", "description": "Fresh, whole Human blood was obtained from three healthy donors from the Upper Providence Blood Donation Unit with syringes coated in liquid sodium heparin (Sagent 10 IU/mL final concentration). Monocytes were isolated from fresh, whole human blood using the RosetteSep Monocyte Enrichment kit (Cat. #15068) and were assessed for expression of cell surface CD14 (BD Bioscience Cat. #562698) using flow cytometry. Isolated Monocytes (1.5×10^6 cells/well) were cultured in 2 mLs of X-Vivo-15 Media supplemented with 1% autologous plasma, 50 ng/mL recombinant human GM-CSF (R&D, 215-GM-050) and 100 ng/mL recombinant human IL-4 (R&D, 204-IL-050) for 7 Days at 37° C./5% CO2. The cultures received a half media change at Day 3 or 4 while maintaining stimulation factor concentrations. NCI-H929 Multiple Myeloma cells were passaged for 2 passages from thaw at 37° C., 5% CO2, 90% humid air in RPMI-1640 supplemented with 10% FBS. Cells were plated at a density of 7.5×10^5 cells/ml in 2 mLs on 12 well plates. […]\nFIG. 3C: IL-10 decreased with BCMA ADC treatment in supernatants from NCI-H929 Multiple Myeloma cells cultured alone. IL-10 was measured in Untreated (a), IgG Control (b), 0.1 (c), 1 (d), and 10 μg/mL BCMA ADC (e) treated (48 hours) NCI-H929 Multiple Myeloma cells."}, "[2]": {"system": "NCI-H929", "assay": "Immunogenic cell death markers (ATP, HMGB1, CRT) after 48 hour treatment", "assay_type": "cell-based, human", "source_text": "The process of immunogenic cell death can induce the production of danger molecules that lead to the activation of dendritic cells (see FIG. 1A—ICD is a special type of apoptosis often associated with the cellular release of ATP and HMGB1, and exposure of CRT at the cellular membrane. ICD induces an immune response through engagement of the antigen presentation process by dendritic cells (DCs)). […] Anti-BCMA-MMAF induced ATP release, HMGB1 release and CRT exposure only in NCI-H929, a BCMA positive MM cell line). To investigate the effect of NCI-H929 cell killing by BCMA ADC on the activation of dendritic cells, co-culture experiments were carried out with BCMA ADC treated NCI-H929 cells and immature dendritic cells (iDCs) differentiated from human monocytes in vitro with GM-CSF/IL-4 treatment. A number of dendritic cell maturation markers as well as IL-10 and IL-12p70, two major cytokines secreted by dendritic cells upon activation, were monitored in this process to assess the effect of BCMA ADC induced cell death on dendritic cell activation."}}, "data": [{"substance": "GSK2857916", "values": [{"measurement": "IL-10 in supernatants", "setting": "[1]", "result": "decreased"}, {"measurement": "HMGB1 release", "setting": "[2]; cellular supernatant, ELISA, only in NCI-H929", "result": "induced"}, {"measurement": "ATP release", "setting": "[2]; cellular supernatant, luminescence, only in NCI-H929, a BCMA positive MM cell line", "result": "induced"}, {"measurement": "CRT exposure", "setting": "[2]; flow cytometry, only in NCI-H929", "result": "induced"}]}]}
